According to US6737383B1, “Herbicidal oxadiazolidines” (priority 1999, dated 2004):

How the values were obtained:
morningglory = test: Test B pre/postemergence morningglory; format: in vivo, Ipomoea hederacea
Outline: (§1)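 Herbicidal effect was estimated by eye on a ten-point control scale after plants spent twelve to sixteen days in a greenhouse following soil or foliar treatment. Foliar sprays targeted plants at one to four leaves; all doses were formulated in a non-phytotoxic solvent with surfactant.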

rape = test: Test B pre/postemergence rape; format: in vivo, Brassica napus
Outline: as §1

wheat = test: Test B pre/postemergence wheat; format: in vivo, Triticum aestivum
Outline: as §1

duck salad = test: Test B flood test duck salad; format: in vivo, Heteranthera limosa; conditions: for Plant response rating, Ducksalad (0 to 10 scale, 0 is no effect, 10 is complete control): Rate 62 g/ha, Pre-emergence; for Plant response rating, Ducksalad (0 to 10 scale, 0 is no effect, 10 is complete control) / Ducksalad plant response rating (0 to 10 scale, 0 is no effect, 10 is complete control): flood test species, visual evaluation after twelve to sixteen days; for Ducksalad plant response rating (0 to 10 scale, 0 is no effect, 10 is complete control): Rate 125 g/ha, under heading Pre-emergence
Outline: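 Each value is a visual injury score relative to controls, with 10 meaning complete control and 0 no effect. Evaluation took place twelve to sixteen days after the 2-leaf-stage plants were treated and kept in the greenhouse.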

[1] = Postemergence, Rate 62 g/ha, scale 0 to 10, 0 is no effect, 10 is complete control
[2] = Postemergence, Rate 125 g/ha, scale of 0 to 10 where 0 is no effect and 10 is complete control
[3] = Postemergence, Rate 250 g/ha, scale of 0 to 10, 0 is no effect, 10 is complete control
[4] = Postemergence, Rate 500 g/ha, scale of 0 to 10 where 0 is no effect and 10 is complete control
[5] = Preemergence, Rate 62 g/ha, scale 0 to 10 (0 no effect, 10 complete control)
[6] = Preemergence, Rate 125 g/ha, scale of 0 to 10 where 0 is no effect and 10 is complete control
[7] = Preemergence, Rate 500 g/ha, scale of 0 to 10 where 0 is no effect and 10 is complete control
[8] = Rate 250 g/ha, Pre-emergence (flood test species), scale 0 to 10, 0 is no effect, 10 is complete control
[9] = Rate 500 g/ha, Pre-emergence section of Table B, 0 to 10 scale (0 no effect, 10 complete control)
[10] = Preemergence, Rate 250 g/ha, scale 0 to 10 (0 no effect, 10 complete control)
[11] = Preemergence, Rate 62 g/ha, scale of 0 to 10 where 0 is no effect and 10 is complete control
[12] = Rate 500 g/ha, Postemergence, scale 0 to 10, 0 is no effect, 10 is complete control

| SMILES | Plant response rating, Morningglory (morningglory; [1]) | Morningglory plant response rating (morningglory; [3]) | Morningglory plant response rating (morningglory; [6]) | Plant response rating, Morningglory (morningglory; [7]) | Plant response rating, Rape (rape; [1]) | Plant response rating, Rape (rape; [2]) | Rape plant response rating (rape; [3]) | Plant response rating, Rape (rape; [4]) | Rape plant response rating (rape; [6]) | Plant response rating, Rape (rape; [7]) | Plant response rating, Wheat (wheat; [1]) | Plant response rating, Wheat (wheat; [2]) | Wheat plant response rating (wheat; [3]) | Wheat plant response rating (wheat; [6]) | Plant response rating, Wheat (wheat; [7]) | Plant response rating, Ducksalad (0 to 10 scale, 0 is no effect, 10 is complete control) (duck salad) | Ducksalad plant response rating (0 to 10 scale, 0 is no effect, 10 is complete control) (duck salad) | Ducksalad plant response rating (duck salad; [8]) | Ducksalad plant response rating (duck salad; [9]) | Plant response rating, Morningglory (morningglory; [10]) | further results |
| --- | --- | --- | --- | --- | --- | --- | --- | --- | --- | --- | --- | --- | --- | --- | --- | --- | --- | --- | --- | --- | --- |
| CCC(C)n1c(=O)on(C(=O)N(c2ccccc2)C(C)C)c1=O (stereo not shown) [Compound 611] | 7 | 8 | 0 | 6 | 0 | 0 | 2 | 3 | 3 | 10 | 0 | 0 | 2 | 3 | 7 | 0 | 0 | 0 | 1 |  | Plant response rating, Morningglory (morningglory; [2]): 8; Plant response rating, Morningglory (morningglory; [4]): 8; Morningglory plant response rating (morningglory; [5]): 0; Rape plant response rating (rape; [5]): 3; Plant response rating, Wheat (wheat; [4]): 8; Wheat plant response rating (wheat; [5]): 1 |
| CC(C)N(C(=O)n1oc(=O)n(CSC#N)c1=O)c1ccc(F)cc1 [Compound 618] | 0 | 0 | 0 | 0 | 0 | 0 | 0 | 0 | 0 | 0 | 0 | 0 | 0 | 0 | 0 | 0 | 0 | 0 | 0 | 0 | Plant response rating, Morningglory (morningglory; [2]): 0; Plant response rating, Morningglory (morningglory; [4]): 0; Morningglory plant response rating (morningglory; [5]): 0; Rape plant response rating (rape; [5]): 0; Plant response rating, Rape (rape; [10]): 0; Wheat plant response rating (wheat; [5]): 0; Plant response rating, Wheat (wheat; [10]): 0 |
| CC(C)N(C(=O)n1oc(=O)n(CNC(=O)c2ccccc2)c1=O)c1ccccc1 [Compound 620] | 2 | 2 | 0 | 0 | 0 | 0 | 0 | 0 | 0 | 0 | 0 | 0 | 0 | 0 | 0 | 0 | 0 | 0 | 0 | 0 | Morningglory plant response rating (morningglory; [5]): 0; Rape plant response rating (rape; [5]): 0; Plant response rating, Rape (rape; [10]): 0; Wheat plant response rating (wheat; [5]): 0; Plant response rating, Wheat (wheat; [10]): 0 |
| COCCn1c(=O)on(C(=O)N(c2ccc(F)cc2)C(C)C)c1=O [Compound 627] | 3 | 6 | 6 | 8 | 0 | 0 | 0 | 5 | 3 | 10 | 2 | 3 | 6 | 0 | 5 | 0 | 0 | 0 | 1 | 6 | Plant response rating, Morningglory (morningglory; [2]): 6; Plant response rating, Morningglory (morningglory; [4]): 6; Morningglory plant response rating (morningglory; [5]): 6; Rape plant response rating (rape; [5]): 1; Plant response rating, Rape (rape; [10]): 9; Wheat plant response rating (wheat; [5]): 0; Plant response rating, Wheat (wheat; [10]): 7 |
| C=C(Cl)Cn1c(=O)on(C(=O)N(c2ccc(F)cc2F)C(C)C)c1=O [Compound 634] | 1 | 2 | 0 | 0 | 0 | 0 | 0 | 0 | 2 | 7 | 0 | 0 | 0 | 0 | 0 | 0 | 0 | 0 | 0 | 0 | Plant response rating, Morningglory (morningglory; [2]): 1; Plant response rating, Morningglory (morningglory; [4]): 2; Morningglory plant response rating (morningglory; [11]): 0; Rape plant response rating (rape; [11]): 0; Plant response rating, Rape (rape; [10]): 6; Wheat plant response rating (wheat; [11]): 0; Plant response rating, Wheat (wheat; [10]): 0 |
| C=C(Cc1ccccc1)Cn1c(=O)on(C(=O)N(c2ccccc2)C(C)C)c1=O [Compound 650] | 4 | 10 | 0 | 1 | 0 |  |  |  | 0 | 2 | 0 |  |  | 0 | 0 | 0 | 0 | 0 | 0 | 1 | Morningglory plant response rating (morningglory; [2]): 10; Morningglory plant response rating (morningglory; [11]): 0; Morningglory plant response rating (morningglory; [12]): 10; Rape plant response rating (rape; [2]): 0; Rape plant response rating (rape; [11]): 0; Plant response rating, Rape (rape; [10]): 0; Rape plant response rating (rape; [12]): 3; Wheat plant response rating (wheat; [2]): 0; Wheat plant response rating (wheat; [11]): 0; Plant response rating, Wheat (wheat; [10]): 0; Wheat plant response rating (wheat; [12]): 0 |
